Each structure is given as a SMILES string.

The target in the test is T1, α4β1 integrin (Homo sapiens, UniProt P05556+P13612).
T1 construct: endogenous in cells; host or cells: U-937 cells
T1 sequence (P13612 34-1032): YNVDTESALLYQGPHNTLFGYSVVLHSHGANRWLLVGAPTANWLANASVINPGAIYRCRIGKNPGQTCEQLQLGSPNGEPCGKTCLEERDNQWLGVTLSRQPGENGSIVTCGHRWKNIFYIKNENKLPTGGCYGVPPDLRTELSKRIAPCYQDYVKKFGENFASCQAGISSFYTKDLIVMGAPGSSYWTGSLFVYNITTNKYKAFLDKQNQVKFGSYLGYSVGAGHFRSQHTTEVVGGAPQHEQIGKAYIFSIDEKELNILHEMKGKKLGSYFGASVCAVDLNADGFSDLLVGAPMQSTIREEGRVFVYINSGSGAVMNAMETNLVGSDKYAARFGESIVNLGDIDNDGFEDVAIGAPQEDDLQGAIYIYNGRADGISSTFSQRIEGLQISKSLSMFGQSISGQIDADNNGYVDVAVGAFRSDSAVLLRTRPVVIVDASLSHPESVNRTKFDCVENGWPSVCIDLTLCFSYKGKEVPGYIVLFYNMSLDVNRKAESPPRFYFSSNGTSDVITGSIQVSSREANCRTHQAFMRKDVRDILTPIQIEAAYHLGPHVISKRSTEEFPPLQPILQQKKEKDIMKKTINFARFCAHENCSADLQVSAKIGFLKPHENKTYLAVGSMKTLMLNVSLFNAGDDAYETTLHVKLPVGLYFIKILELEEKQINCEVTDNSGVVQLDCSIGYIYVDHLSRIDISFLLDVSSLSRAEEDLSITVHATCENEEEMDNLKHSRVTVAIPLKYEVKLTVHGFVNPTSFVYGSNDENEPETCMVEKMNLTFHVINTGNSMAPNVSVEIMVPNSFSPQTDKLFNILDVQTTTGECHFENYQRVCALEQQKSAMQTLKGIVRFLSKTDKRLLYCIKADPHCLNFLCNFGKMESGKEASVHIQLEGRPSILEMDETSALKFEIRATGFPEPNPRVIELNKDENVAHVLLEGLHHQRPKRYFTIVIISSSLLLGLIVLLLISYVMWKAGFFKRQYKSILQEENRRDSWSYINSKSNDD
T1 sequence (P05556 21-798): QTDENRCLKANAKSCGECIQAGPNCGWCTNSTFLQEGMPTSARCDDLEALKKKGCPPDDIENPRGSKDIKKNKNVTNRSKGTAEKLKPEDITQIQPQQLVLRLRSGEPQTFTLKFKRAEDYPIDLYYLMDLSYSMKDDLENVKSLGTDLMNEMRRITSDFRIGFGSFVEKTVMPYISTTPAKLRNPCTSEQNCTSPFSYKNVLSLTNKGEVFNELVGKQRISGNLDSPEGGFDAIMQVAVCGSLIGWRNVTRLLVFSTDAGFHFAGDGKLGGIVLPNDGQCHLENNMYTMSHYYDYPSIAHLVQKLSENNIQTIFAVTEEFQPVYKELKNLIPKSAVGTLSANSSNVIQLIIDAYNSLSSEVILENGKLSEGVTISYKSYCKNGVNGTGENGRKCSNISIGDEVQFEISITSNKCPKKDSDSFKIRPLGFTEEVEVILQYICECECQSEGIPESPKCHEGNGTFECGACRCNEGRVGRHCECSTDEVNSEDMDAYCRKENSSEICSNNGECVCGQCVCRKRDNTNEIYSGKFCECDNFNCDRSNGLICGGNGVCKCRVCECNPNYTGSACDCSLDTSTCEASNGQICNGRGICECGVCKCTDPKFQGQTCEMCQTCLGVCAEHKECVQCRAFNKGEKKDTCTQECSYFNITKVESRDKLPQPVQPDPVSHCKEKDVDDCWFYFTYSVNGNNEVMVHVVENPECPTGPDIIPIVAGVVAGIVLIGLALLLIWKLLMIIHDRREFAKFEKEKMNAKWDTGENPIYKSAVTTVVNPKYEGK
Put plainly: U-937 cell adhesion to human VCAM-1 (α4β1 binding assay). Format: cell-based. To be noted: U-937 cells, immobilized human VCAM-1; read-out: IC50 values in the α4β1 assays. The procedure: U-937 Cell Adhesion to Human VCAM-1 (α4β1 Binding Assay)
Recombinant human soluble VCAM-1 (R&D Systems Ltd., UK) at 2 μg/ml in PBS was immobilized overnight onto microtiter plates. Unbound VCAM-1 was washed away and VCAM-1 coated plates were blocked with bovine serum albumin (BSA) 2,5% in PBS for 2 h at room temperature. U-937 cells were labelled with 5-carboxyfluorescein diacetate (5-CFDA) in order to detect bound cells to the wells. Test compounds were added to the wells followed by U-937 cells and the adhesion assay was performed for 1 h at 37° C. Following incubation, the wells were emptied and washed. Inhibition of binding was measured by the quantity of fluorescence bound to the plate for each of the various concentrations of test compound, as well as for controls containing no test compound, with a Cytofluor 2300 fluorescence measurement system.
For `CN(C(=O)c1ccccc1NC(=O)N[C@@H](Cc1ccc(NC(=O)c2c(Cl)cccc2Cl)cc1)C(=O)O)C1CCCCC1` [Example 2], the IC50 was < 100 nM. Under `CCCCN(Cc1cccs1)S(=O)(=O)c1ccccc1NC(=O)N[C@@H](Cc1ccc(NC(=O)c2c(Cl)cccc2Cl)cc1)C(=O)O` [Example 20, (S)-2-{3-[2-(Butylthiophen-2-ylmethylsulfamoyl)phenyl]ureido}-3-[4-(2,6-dichlorobenzoylamino)phenyl]propionic acid] stands < 100 nM; under `O=C(Nc1ccccc1S(=O)(=O)NCc1cccs1)N[C@@H](Cc1ccc(NC(=O)c2c(Cl)cccc2Cl)cc1)C(=O)O` [Example 21, (S)-3-[4-(2,6-Dichlorobenzoylamino)phenyl]-2-(3-{2-[(thiophen-2-ylmethyl)sulfamoyl]phenyl}ureido)propionic acid], < 100 nM. The figure for `O=C(Nc1ccccc1S(=O)(=O)Nc1ccccc1)N[C@@H](Cc1ccc(NC(=O)c2c(Cl)cccc2Cl)cc1)C(=O)O` [Example 22, (S)-3-[4-(2,6-Dichlorobenzoylamino)phenyl]-2-[3-(2-phenylsulfamoylphenyl)ureido]propionic acid] is < 100 nM; for `CN(C(=O)N[C@@H](Cc1ccc(NC(=O)c2c(Cl)cccc2Cl)cc1)C(=O)O)c1ccccc1C(=O)N(C)C1CCCCC1` [Example 32] it is < 100 nM. Under `O=C(Nc1ccccc1S(=O)(=O)c1ccccc1)N[C@@H](Cc1ccc(NC(=O)c2c(Cl)cccc2Cl)cc1)C(=O)O` [Example 36, (S)-2-[3-(2-Benzenesulfonylphenyl)ureido]-3-[4-(2,6-dichlorobenzoylamino)phenyl]propionic acid] stands < 100 nM. For the molecule `O=C(Nc1ccccc1Sc1ccccc1)N[C@@H](Cc1ccc(NC(=O)c2c(Cl)cccc2Cl)cc1)C(=O)O` [Example 44, (S)-3-[4-(2,6-Dichlorobenzoylamino)phenyl]-2-[3-(2-phenylsulfanylphenyl)ureido]propionic acid], the IC50 was < 100 nM.

Consider `O=C(Nc1cc(Cl)ccc1S(=O)(=O)c1ccccc1)N[C@@H](Cc1ccc(NC(=O)c2c(Cl)cccc2Cl)cc1)C(=O)O` [Example 48, (S)-2-[3-(2-Benzenesulfonyl-5-chlorophenyl)ureido]-3-[4-(2,6-dichlorobenzoylamino)phenyl]propionic acid], for which the IC50 is < 100 nM.

For the molecule `Cc1ccc(S(=O)(=O)c2ccc(Cl)c(NC(=O)N[C@@H](Cc3ccc(NC(=O)c4c(Cl)cccc4Cl)cc3)C(=O)O)c2)cc1` [Example 54, (S)-2-{3-[2-Chloro-5-(toluene-4-sulfonyl)phenyl]ureido}-3-[4-(2,6-dichlorobenzoylamino)phenyl]propionic acid], the IC50 is < 100 nM. The figure for `O=C(Nc1cccnc1S(=O)(=O)c1ccccc1)N[C@@H](Cc1ccc(NC(=O)c2c(Cl)cccc2Cl)cc1)C(=O)O` [Example 58, (S)-2-[3-(2-Benzenesulfonylpyridin-3-yl)ureido]-3-[4-(2,6-dichlorobenzoylamino)phenyl]propionic acid] is < 100 nM; for `O=C(Nc1ccccc1S(=O)(=O)N1CCCCC1)N[C@@H](Cc1ccc(NC(=O)c2c(Cl)cncc2Cl)cc1)C(=O)O` [Example 62, (S)-3-{4-[(3,5-Dichloropyridine-4-carbonyl)amino]phenyl}-2-{3-[2-(piperidine-1-sulfonyl)phenyl]ureido}propionic acid] it is < 100 nM. Take `COc1ccc(OC)c(S(=O)(=O)c2ccc(Cl)cc2NC(=O)N[C@@H](Cc2ccc(NC(=O)c3c(Cl)cncc3Cl)cc2)C(=O)O)c1` [Example 64, (S)-2-{3-[5-Chloro-2-(2,5-dimethoxybenzenesulfonyl)phenyl]ureido}-3-{4-[(3,5-dichloropyridine-4-carbonyl)amino]phenyl}propionic acid]: the 50% inhibitory concentration (IC50) is < 100 nM.

Regarding `CN(C1CCCCC1)S(=O)(=O)c1ccccc1NC(=O)N[C@@H](Cc1ccc(NC(=O)c2c(Cl)cncc2Cl)cc1)C(=O)O` [Example 66], the IC50 was < 100 nM.

The term IC50 denotes the concentration at which inhibition is half-maximal.

(Values after patent US7253171B2 (Laboratorios Almirall, S.A., priority 2001, dated 2007).)
